Laboratory results: article PMC10375784, “Synthesis of phthalazine-based derivatives as selective anti-breast cancer agents through EGFR-mediated apoptosis: in vitro and in silico studies” (BMC Chemistry, 2023)
Like-named read-outs stand apart in the source and are kept apart here.

Columns and labels:
MCF-7 cells = assay: MTT cytotoxicity assay, MCF-7; assay type: cell-based; details: Homo sapiens, MCF7, 48 h, three independent trials, read-out: IC50 (μM) ± SD MCF-7
Protocol: (§1) MCF-7, HepG2 cancer cells and WISH normal cells were obtained from the National Cancer Institute in Cairo, Egypt, they were cultured in complete media of RPMI and DMEM, respectively at 5% carbon dioxide and 37 °C following standard tissue culture work. The cells were grown in “10% fetal bovine serum (FBS) and 1% penicillin–streptomycin” in 96-multiwell plate. All the synthesized compounds were screened for their cytotoxicity using 20 µL of MTT solution (Promega, USA) for 48 hours using untreated and treated cells with concentrations of (0.01, 0.1, 1, 10, and 100 µM) for 48 h. The plate was cultured for 3 h. Percentage of cell viability was calculated following this equation: 100-(ASample/AControl)X100 . An ELISA microplate reader was used to measure the absorbance at 690 nm to calculate the viability versus concentration, and the IC50 value using GraphPad prism software.

MDA-MB-231 cells [1] = assay: MTT cytotoxicity assay, MDA-MB-231; assay type: cell-based
[2] = system: breast MCF-7 and MDA-MB-231 cancer cell lines; assay: SAR ranking of cytotoxicity (from Table 1); assay type: cell-based; details: Fig. 4, SAR summary
[3] = system: breast MCF-7 and MDA-MB-231 cancer cell lines; assay: SAR ranking of cytotoxicity (from Table 1); details: based on Table 1; cell line not stated, order follows MCF-7 values
Protocol: as §1

VEGFR‐2 = details: cited from earlier work
[4] = MTT cytotoxicity assay, normal breast cells MCF-10A; assay type: cell-based; details: human; MCF-10A normal breast cells, highest concentration; read-out: percentage of cell viability at the highest concentration
MCF-10A cells = assay: as above; assay type: cell-based; details: Homo sapiens, MCF-10A; MTT, 48 h, normal breast cells; read-out: IC50 (μM) ± SD MCF-10A
EGFR = molecular target: T1, EGFR (Homo sapiens, UniProt P00533); assay: EGFR enzyme inhibition (BPS Bioscience kit, ELISA); assay type: biochemical; details: three independent replicates; for IC50: five concentrations, read-out: EGFR IC50 [nM] ± SD
T1 construct: purchased BPS Bioscience Corporation 40321
Protocol: The luminescence was measured with a microplate reader at 450 nm by ELISA Reader (PerkinElmer). Inhibition percentage was calculated following this equation: 100-[Acontrol/Atreated-Control)] , IC50 was determined using GraphPad prism7 using inhibition curves at five different concentrations of each compound.

MDA-MB-231 cells [5] = assay: Flow cytometry Annexin V/PI apoptosis/necrosis assessment; assay type: cell-based; details: MDA-MB-231, treated at IC50 0.57 μM, 48 h
Protocol: MDA-MB-231 cells were incubated overnight in 6-well culture plates (3–5 × 10^5 cells/well) and then treated with the IC50 values for 48 h with compound 12d. After that, the cells were incubated in a 100 µL solution of Annexin binding buffer "25 mM CaCl2, 1.4 M NaCl, and 0.1 M Hepes/NaOH, pH 7.4" in the dark for 30 min with "Annexin V-FITC solution (1:100) and propidium iodide (PI) at a concentration equivalent to 10 µg/mL." The labeled cells were then extracted using the Cytoflex FACS machine. CytExpert software was used to analyze the data.

[6] = Homo sapiens, MDA-MB-231, MTT, 48 h, three independent trials, read-out: IC50 (μM) ± SD MDA-MB-231
[7] = Fig. 3, MTT, 100 µM to 0.01 µM, 48 h, cell line not given, they match MDA-MB-231
[8] = Homo sapiens, Fig. 3, MTT, 100 µM to 0.01 µM, 48 h, cell line not given, they match MDA-MB-231, read-out: IC50 (Fig. 3 curve fit)

T1 sequence (P00533 25-1210): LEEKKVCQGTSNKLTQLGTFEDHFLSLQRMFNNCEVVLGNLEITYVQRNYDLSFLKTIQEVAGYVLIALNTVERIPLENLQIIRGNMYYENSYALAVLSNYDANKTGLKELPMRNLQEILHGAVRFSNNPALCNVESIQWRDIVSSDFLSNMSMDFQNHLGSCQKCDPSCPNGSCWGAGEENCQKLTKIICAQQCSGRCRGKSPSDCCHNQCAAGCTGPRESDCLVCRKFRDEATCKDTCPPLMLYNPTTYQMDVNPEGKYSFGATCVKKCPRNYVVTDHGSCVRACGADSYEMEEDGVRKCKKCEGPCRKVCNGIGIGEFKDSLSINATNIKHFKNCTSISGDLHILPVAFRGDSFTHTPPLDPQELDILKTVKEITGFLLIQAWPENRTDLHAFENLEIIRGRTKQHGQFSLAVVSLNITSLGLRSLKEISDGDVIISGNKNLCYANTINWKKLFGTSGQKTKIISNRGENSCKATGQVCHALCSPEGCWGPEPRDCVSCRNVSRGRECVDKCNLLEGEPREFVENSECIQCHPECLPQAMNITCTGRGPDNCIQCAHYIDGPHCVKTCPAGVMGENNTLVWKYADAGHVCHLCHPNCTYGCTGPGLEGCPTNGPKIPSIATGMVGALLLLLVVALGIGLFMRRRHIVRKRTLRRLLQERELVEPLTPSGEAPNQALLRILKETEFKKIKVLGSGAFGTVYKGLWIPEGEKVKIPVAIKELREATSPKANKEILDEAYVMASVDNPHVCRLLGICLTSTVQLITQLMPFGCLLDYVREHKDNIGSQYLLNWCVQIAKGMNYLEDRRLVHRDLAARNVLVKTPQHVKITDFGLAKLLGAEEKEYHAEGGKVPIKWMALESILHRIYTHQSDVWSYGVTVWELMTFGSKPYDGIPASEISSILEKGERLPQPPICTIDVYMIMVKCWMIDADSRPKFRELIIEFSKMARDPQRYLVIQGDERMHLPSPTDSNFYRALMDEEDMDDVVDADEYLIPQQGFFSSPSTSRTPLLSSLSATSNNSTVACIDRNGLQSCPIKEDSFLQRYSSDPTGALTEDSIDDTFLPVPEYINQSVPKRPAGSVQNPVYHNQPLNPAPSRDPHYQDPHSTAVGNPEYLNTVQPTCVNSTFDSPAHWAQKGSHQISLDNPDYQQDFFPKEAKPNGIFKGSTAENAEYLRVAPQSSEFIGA

| SMILES | IC50 (MCF-7 cells) | IC50 (MDA-MB-231 cells [1]; [6]) | melting point | level of cytotoxic activity (Fig. 4) [2] | order of cytotoxic activity (SAR) [3] | further results |
| --- | --- | --- | --- | --- | --- | --- |
| NNC(=O)CNC(=O)Cn1nc(Cc2ccccc2)c2ccccc2c1=O [Compound 8a, 2-(4-benzyl-1-oxophthalazin-2(1H)-yl)-N-(2-hydrazineyl-2-oxoethyl) acetamide] | 31.2 ± 1.01 µM | 1.34 ± 0.13 µM | 202 to 204 °C | – | – | – |
| C=CCNC(=O)Cn1nc(Cc2ccccc2)c2ccccc2c1=O [Compound 6f, 2-(4-benzyl-1-oxophthalazin-2(1H)-yl)-N-allyl acetamide] | 23.1 ± 0.94 µM | ≥ 50 µM | 164 to 166 °C | Third level activity (Poor cytotoxicity) | – | – |
| COC(=O)CNC(=O)CNC(=O)Cn1nc(Cc2ccccc2)c2ccccc2c1=O [Compound 11a, methyl (2-(4-benzyl-1-oxophthalazin-2(1H)-yl)acetyl) glycyl glycinate] | 11.3 ± 0.29 µM | 7.2 ± 0.3 µM | 162 to 164 °C | Second level activity (Moderate cytotoxicity) | moderate cytotoxicity (IC50 ≤ 20 μM) | – |
| COC(=O)CNC(=O)Cn1nc(Cc2ccccc2)c2ccccc2c1=O [Compound 7a, methyl (2-(4-benzyl-1-oxophthalazin-2(1H)-yl)acetyl) glycinate] | ≥ 50 µM | 26.5 ± 0.79 µM | – | – | – | – |
| Cc1ccc(Nc2nnc(Cc3ccncc3)c3ccccc23)cc1Br [AAC789] | – | – | – | – | – | IC50 (VEGFR‐2): 0.02 µM |
| Nc1cc(=O)[nH]n1C(=O)CNC(=O)Cn1nc(Cc2ccccc2)c2ccccc2c1=O [Compound 12d, N-(2-(5-amino-3-oxo-2,3-dihydro-1H-pyrazol-1-yl)-2-oxoethyl)-2-(4-benzyl-1-oxophthalazin-2(1H)-yl) acetamide] | 1.9 ± 0.01 µM | 0.57 ± 0.09 µM | – | First level activity (Potent cytotoxicity) | potent cytotoxicicty (IC50 ≤ 2.5 μM) | LogIC50 (Fig. 3 curve fit) (MDA-MB-231 cells [1]; [7]): -0.2373; IC50 (MDA-MB-231 cells [1]; [8]): 0.579 µM; cell growth inhibition at the highest concentration (MDA-MB-231 cells [1]; MDA-MB-231, highest concentration (range 100 µM to 0.01 µM), 48 h): 98.2%; viability at 48 h, 100 µM [4]: 3%; IC50 (MCF-10A cells): 41.6 ± 1.8 µM; inhibition at 10 µM (EGFR): 97.6 ± 2.49%; IC50 (EGFR): 21.4 ± 0.67 nM; early apoptosis (Q4, AV+/PI−) (MDA-MB-231 cells [5]): 24.2%; late apoptosis (Q2, AV+/PI+) (MDA-MB-231 cells [5]): 18.3%; necrosis fold vs control (MDA-MB-231 cells [5]): 9.25 fold; total apoptosis fold vs control (MDA-MB-231 cells [5]): 64.4 fold; total apoptotic cell death (MDA-MB-231 cells [5]; control 0.66%): 42.5%; necrosis (Q1, AV−/PI+) (MDA-MB-231 cells [5]; control 0.67%): 6.2% |
| O=C(Cn1nc(Cc2ccccc2)c2ccccc2c1=O)N1CCCCC1 [Compound 6g, 4-benzyl-2-(2-oxo-2-(piperidin-1-yl)ethyl) phthalazin-1(2H)-one] | – | – | 192 to 194 °C | – | – | – |
| O=C(CNC(=O)Cn1nc(Cc2ccccc2)c2ccccc2c1=O)NCc1ccccc1 [Compound 10a, N-benzyl-2-(2-(4-benzyl-1-oxophthalazin-2(1H)-yl)acetamido) acetamide] | ≥ 50 µM | 6.4 ± 0.18 µM | 186 to 188 °C | – | – | – |
| O=C(Cn1nc(Cc2ccccc2)c2ccccc2c1=O)NCc1ccccc1 [Compound 6a, 2-(4-benzyl-1-oxophthalazin-2(1H)-yl)-N-benzyl acetamide] | 18.6 ± 0.69 µM | 19.8 ± 0.74 µM | 174 to 176 °C | Third level activity (Poor cytotoxicity) | – | – |
| O=C(Cn1nc(Cc2ccccc2)c2ccccc2c1=O)NCC(=O)N1CCOCC1 [Compound 10h, 2-(4-benzyl-1-oxophthalazin-2(1H)-yl)-N-(2-morpholino-2-oxoethyl) acetamide] | 16.4 ± 0.31 µM | 2.3 ± 0.1 µM | 148 to 150 °C | Second level activity (Moderate cytotoxicity) | moderate cytotoxicity (IC50 ≤ 20 μM) | – |
| C/C(=N\NC(=O)CNC(=O)Cn1nc(Cc2ccccc2)c2ccccc2c1=O)c1ccco1 [Compound 12c, (E)-2-(4-benzyl-1-oxophthalazin-2(1H)-yl)-N-(2-(2-(1-(furan-2-yl)ethylidene) hydrazineyl)-2-oxoethyl) acetamide] | 1.4 ± 0.05 µM | 1.89 ± 0.04 µM | 209 to 210 °C | First level activity (Potent cytotoxicity) | potent cytotoxicicty (IC50 ≤ 2.5 μM) | LogIC50 (Fig. 3 curve fit) (MDA-MB-231 cells [1]; [7]): 0.2772; IC50 (MDA-MB-231 cells [1]; [8]): 1.89 µM; viability at 48 h, 100 µM [4]: 9.6%; IC50 (MCF-10A cells): 43.6 ± 1.9 µM; inhibition at 10 µM (EGFR): 96.2 ± 2.04%; IC50 (EGFR): 65.4 ± 1.12 nM |
| C#Cc1cccc(Nc2ncnc3cc(OCCOC)c(OCCOC)cc23)c1 [Erlotinib, reference compound] | 1.32 ± 0.04 µM | – | – | – | – | IC50 (MDA-MB-231 cells [1]; Homo sapiens, MDA-MB-231, 48 h, MTT, three independent trials, read-out: IC50 (μM) ± SD MDA-MB-231): 1 µM; IC50 (MDA-MB-231 cells [1]; MTT, 48 h, three independent trials, read-out: IC50 (μM) ± SD MDA-MB-231): 1.02 ± 0.1 µM; IC50 (MCF-10A cells): 30.9 ± 1.8 µM |
| O=C(Cn1nc(Cc2ccccc2)c2ccccc2c1=O)N1CCOCC1 [Compound 6h, 4-benzyl-2-(2-morpholino-2-oxoethyl) phthalazin-1(2H)-one] | 17.3 ± 0.31 µM | 21.3 ± 0.64 µM | 210 to 212 °C | Third level activity (Poor cytotoxicity) | – | – |
| C=CCNC(=O)CNC(=O)Cn1nc(Cc2ccccc2)c2ccccc2c1=O [Compound 10f, N-allyl-2-(2-(4-benzyl-1-oxophthalazin-2(1H)-yl)acetamido) acetamide] | 15.4 ± 0.28 µM | 8.6 ± 0.1 µM | 188 to 190 °C | Second level activity (Moderate cytotoxicity) | moderate cytotoxicity (IC50 ≤ 20 μM) | – |
| COC(=O)C(NC(=O)CNC(=O)Cn1nc(Cc2ccccc2)c2ccccc2c1=O)C(C)C (stereo not shown) [Compound 11d, methyl (2-(4-benzyl-1-oxophthalazin-2(1H)-yl)acetyl) glycyl valinate] | 2.1 ± 0.01 µM | 0.92 ± 0.01 µM | 190 to 192 °C | – | – | LogIC50 (Fig. 3 curve fit) (MDA-MB-231 cells [1]; [7]): -0.03564; IC50 (MDA-MB-231 cells [1]; [8]): 0.921 µM; viability at 48 h, 100 µM [4]: 11%; IC50 (MCF-10A cells): 39.4 ± 1.8 µM; inhibition at 10 µM (EGFR): 92.9 ± 2.08%; IC50 (EGFR): 79.6 ± 1.35 nM |
